The text below walks through data of US20250188110A1, “SPECIFIC SMALL MOLECULE INHIBITORS THAT BLOCK KMT9 METHYLTRANSFERASE ACTIVITY AND FUNCTION” (ALBERT-LUDWIGS-UNIVERSITÄT FREIBURG, priority 2021, published 2025).

For orientation: IC50 means the concentration that inhibits the measured activity by half. A low value points to inhibition by little substance.

Assay [1] addresses T1, KMT9 (Homo sapiens, UniProt Q9Y5N5).
T1 sequence (Q9Y5N5 1-214): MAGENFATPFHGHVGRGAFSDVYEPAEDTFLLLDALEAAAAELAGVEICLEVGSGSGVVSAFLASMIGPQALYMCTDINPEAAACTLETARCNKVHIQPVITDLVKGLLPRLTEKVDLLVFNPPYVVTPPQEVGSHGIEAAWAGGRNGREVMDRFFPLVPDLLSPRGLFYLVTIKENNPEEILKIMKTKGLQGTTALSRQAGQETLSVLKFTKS
T1 sequence (Q9UI30 1-120 isoform Q9UI30-2 partner): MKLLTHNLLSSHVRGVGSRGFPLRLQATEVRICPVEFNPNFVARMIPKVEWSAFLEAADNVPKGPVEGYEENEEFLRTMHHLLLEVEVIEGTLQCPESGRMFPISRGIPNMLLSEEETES
Description: KMT9 methyltransferase inhibition assay, 3H-SAM scintillation (entries 1-154). The class given is biochemical. The following applies: entries 1-154: 3H-SAM assay, 25 nM KMT9, 5 μM ETF1. The method, then:
The assay was carried out in 0.5 mL Eppendorf tubes in duplicates. Assay buffer consisted of 50 mM BTP, 1 mM MgCl2, 1 mM DTT and 0.01% Triton-X^100 at a pH of 8.5 (adjusted using 1 M HCl and 1 M NaOH). 20X inhibitor stock (in DMSO), 2X enzyme stock and 4X substrate mix (both in assay buffer) were prepared. The substrate mix consisted of Tritium-labelled S-adenosylmethionine (3H-SAM), S-adenosylmethionine (SAM) and eukaryotic peptide chain release factor subunit1 (Homo sapiens, residues 140-275)(ETF1). Final assay concentrations were set to 25 nM KMT9, 0.3 μM 3H-SAM, 0.7 µM SAM and 5 μM ETF1. […] 5 μL of 4x substrate mix was added to initiate the reaction. The final reaction volume was 20 μL. For the positive control, the compound of formula (I) was replaced by DMSO; for the negative control, the compound of formula (I) was replaced by DMSO and KMT9 was replaced by assay buffer. The reaction mix was incubated in an Eppendorf thermomixer comfort at 30° C. for 2 h, shaking at 300 rpm. The reaction was quenched using 5 μL 50% trichloroacetic acid (TCA) and incubated at 25° C. for 5 minutes. 22 μL of the mixture was transferred into 96-well MultiScreen@HTS FB filter plates (Merck KGaA, Darmstadt, Germany) and washed four times with 10% TCA and two times with 100% ethanol. The plate was dried overnight, the filters were transferred into individual 6 mL Pony Vials (Perkin Elmer Inc, Waltham, MA, USA) and incubated in 3 mL of Ultima Gold scintillation cocktail (Perkin Elmer Inc, Waltham, MA, USA) for 30 minutes. The scintillation signal was measured for 3x 1 min using TriCarb 2910 TR (Perkin Elmer) scintillation counter in 3H CPM mode (LL: 0, UL: 18.6). Inhibition was calculated using the following formula: […]
With xc: signal of compound, Xpos: mean signal of positive control, Xneg: mean signal of negative control. Data fitting was carried out by GraphPad 7.0 using nonlinear fit ([Inhibitor]vs. response-variable slope (four parameters)).
For the results of the methyltransferase inhibition assay shown as “Inhibition” in Table 1, “I” represents an IC50 less than 0.1 μM, “II” represents an IC50 equal or higher than 0.1 μM and less than 1 μM, “III” represents an IC50 equal or higher than 1 µM and less than 10 µM and “IV” represents an IC50 equal or higher than 10 µM

Assay [2] has as its target T1, KMT9. Nature of the assay: KMT9 thermal shift assay (SyproOrange). Conditions: ΔTm; 500 µM compound, 2 μM KMT9, 5X SO; read-out: Thermal shift. The class given is binding. The method, then:
The assay was carried out in 96-well Hard-Shell PCR plates (Bio-Rad Laboratories Inc.). Assay buffer consisted of 50 mM BTP, 1 mM MgCl2 and 1 mM DTT at a pH of 8.5 (adjusted using 1 M HCl and 1 M NaOH). 20X inhibitor stock (in DMSO), 2X enzyme stock and 4X SyproOrange (SO) stock (both in assay buffer) were prepared. 1 μL of 20X compound, 4 μL of assay buffer, 10 μL of 2X KMT9 and 5 μL of 4X SO were pipetted. For the no-compound control, 20X inhibitor stock was replaced by DMSO. The final volume was 20 μL. The plate was spun down at 700 rpm for 1 min using a Hettich UNIVERSAL 320 centrifuge and incubated at 25° C., shaking at 600 rpm. After incubation, the plate was spun down for 1 min at 700 rpm and measurement was conducted using a CFX96 Touch Real-Time PCR Detection System (Bio-Rad Laboratories Inc.). The plate was equilibrated at 20° C. for 4 min and then heated stepwise at a rate of 1° C. per 15 s until 95° C. After every step, fluorescence was measured in FRET mode. Calculation of melting points was conducted by a Boltzman sigmoidal model using GraphPad Prism 7.0.
For the results of the thermal shift assay shown as “Thermal shift” in Table 1, “++++” represents a ΔTm of greater 20 K, “+++” represents a ΔTm of greater than 15 K and less than or equal to 20 K (15 K<ΔTm≤20 K); “++” represents a ΔTm of greater than 10 K and less than or equal to 15 K (10 K<ΔTm ≤ 15 K); “+” represents a ΔTm of equal to or less than 10 K (ΔTm≤10 K).

Assay [3] addresses T1, KMT9. Nature of the assay: Microscale thermophoresis (MST) KMT9 binding. The following applies: microscale thermophoresis, His-tag labelled KMT9 (20 nM); read-out: MST. The method, then: To determine the binding affinity of the compounds according to the present invention and KMT9, microscale thermophoresis (MST) analysis was performed with a NanoTemper Monolith NT.115 instrument (NanoTemper Technologies GmbH). KMT9 was labelled with a RED-Tris-NTA labelling kit (NanoTemper Technologies GmbH) based on the manufacturer's instructions. Buffer including 25 mM HEPES (pH 7.5), 100 mM NaCl, 1 mM DTT and 0.05% Tween was used for the reaction buffer. Varying concentrations of the tested compounds of formula (I) as indicated in Table 1 were titrated against His-tag labelled KMT9 proteins (20 nM). Samples were loaded into standard Capillaries (NanoTemper Technologies GmbH) and MST measurements were performed using 40% MST power and 100% LED power. For each set of binding experiments, MST measurement was carried out with Binding Affinity module in MO.Control program under Nano-RED Excitation. Datasets were processed with the MO.Affinity Analysis software (NanoTemper Technologies GmbH).
For the results of the microscale thermophoresis (MST) assay shown as “MST” in Table 1, “A” represents a Kd of equal to or less than 10 nM (Kd≤10 nM); “B” represents a Kd of greater than 10 nM and equal to or less than 100 nM (10 nM<Kd<100 nM); “C” represents a Kd of greater than 100 nM and equal to or less than 1000 nM (100 nM<Kd ≤ 1000 nM); “D” represents a Kd of greater than 1000 nM (1000 nM<Kd).
For orientation: Microscale thermophoresis detects binding through changes in fluorescence in a small temperature gradient.

A value given as a limit tells only on which side of the number the result lay.

Compound `CNc1ncnc2c1ccn2[C@@H]1C[C@H](CN(CCCNCCc2ccccc2)c2ccccc2)[C@@H](O)[C@H]1O` [440 (312), (1R,2S,3R,5R)-3-(4-(Methylamino)-7H-pyrrolo[2,3-d]pyrimidin-7-yl)-5-(((3-(phenethylamino)propyl)(phenyl)amino)methyl)cyclopentane-12-diol] returned an IC50 on KMT9 [1] of more than 10000 nM. Further, the ΔTm at 500 µM on KMT9 [2] was not above 10 °C. For the same compound, the Kd on KMT9 [3] is more than 1000 nM.

Compound `CN1CCC(c2cn([C@@H]3C[C@H](CNCCCNCCc4ccccc4)[C@@H](O)[C@H]3O)c3ncnc(N)c23)CC1` [480 (354), (1R,2S,3R,5R)-3-(4-Amino-5-(1-methylpiperidin-4-yl)-7H-pyrrolo[2,3-d]pyrimidin-7-yl)-5-(((3-(phenethylamino)propyl)amino)methyl) cyclopentane-1,2-diol] gave an IC50 on KMT9 [1] of 1000 to 10000 nM. Further, on KMT9 [2], the ΔTm at 500 µM was not above 10 °C. At KMT9 [3], the Kd was more than 1000 nM.

In turn, `CNc1ncnc2c1ccn2[C@@H]1C[C@H](COCCCNCCc2cccc(Oc3ccccc3)c2)[C@@H](O)[C@H]1O` [421 (292), (1R,2S,3R,5R)-3-(4-(Methylamino)-7H-pyrrolo[2,3-d]pyrimidin-7-yl)-5-((3-((3-phenoxyphenethyl)amino)propoxy)methyl) cyclopentane-1,2-diol] gave an IC50 against KMT9 [1] of more than 10000 nM. On KMT9 [2], the ΔTm at 500 µM was not above 10 °C. Further, the Kd on KMT9 [3] was more than 1000 nM.

Turning to `Nc1ncnc2c1c(Br)cn2[C@@H]1C[C@H](CNCCCNCCc2cccc(F)c2)[C@@H](O)[C@H]1O` [317 (218), (1R,2S,3R,5R)-3-(4-amino-5-bromo-7H-pyrrolo[2,3-d]pyrimidin-7-yl)-5-(((3-((3-fluorophenethyl)amino)propyl)amino)methyl) cyclopentane-1,2-diol], on KMT9 [1], the IC50 fell in the range of 100 to 1000 nM. Besides, on KMT9 [2], the ΔTm at 500 µM was in the range of 15 to 20 °C. In addition, on KMT9 [3], the Kd is 10 to 100 nM.

On to `CNc1ncnc2c1ccn2[C@@H]1C[C@H](CNCCCNCCc2ccccc2)[C@@H](O)[C@H]1O` [291 (188), (1R,2S,3R,5R)-3-(4-(methylamino)-7H-pyrrolo[2,3-a]pyrimidin-7-yl)-5-(((3-(phenethylamino)propyl)amino)methyl) cyclopentane-1,2-diol], for which, on KMT9 [1], the IC50 fell in the range of 1000 to 10000 nM. Also, the ΔTm at 500 µM on KMT9 [2] was in the range of 10 to 15 °C. Further, the Kd at KMT9 [3] was more than 1000 nM.

For the compound `CNc1ncnc2c1ccn2[C@@H]1C[C@H](CNCCCNCc2ccc(OCc3ccccc3)cc2)[C@@H](O)[C@H]1O` [328 (232), (1S,2R,3R,5R)-3-(((3-((4-(benzyloxy)benzyl)amino)propyl)amino)methyl)-5-(4-(methylamino)-7H-pyrrolo[2,3-d]pyrimidin-7-yl) cyclopentane-1,2-diol], at KMT9 [1], the IC50 is more than 10000 nM. The ΔTm at 500 µM on KMT9 [2] was not above 10 °C. On KMT9 [3], the Kd is more than 1000 nM.

For the compound `CNc1ncnc2c1ccn2[C@@H]1C[C@H](CN(CCCNCCc2cccc(Oc3ccccc3)c2)NC)[C@@H](O)[C@H]1O` [367 (271), (1S,2R,3R,5R)-3-((2-methyl-1-(3-((3-phenoxyphenethyl)amino)propyl) hydrazineyl)methyl)-5-(4-(methylamino)-7H-pyrrolo[2,3-d]pyrimidin-7-yl) cyclopentane-1,2-diol], the IC50 against KMT9 [1] is more than 10000 nM. The ΔTm at 500 µM at KMT9 [2] is not above 10 °C. For the same compound, on KMT9 [3], the Kd was more than 1000 nM.

`C=Cc1cn([C@@H]2C[C@H](CNCCCNCCc3cccc(Oc4ccccc4)c3)[C@@H](O)[C@H]2O)c2ncnc(N)c12` [462 (336), (1R,2S,3R,5R)-3-{4-Amino-5-ethenylpyrrolo[2,3-d]pyrimidin-7-yl}-5-{[(3-{[2-(3-phenoxyphenyl)ethyl]amino}propyl)amino]methyl}cyclopentane-1,2-diol] gave an IC50 against KMT9 [1] of 1000 to 10000 nM. The ΔTm at 500 µM on KMT9 [2] fell in the range of 15 to 20 °C. Also, on KMT9 [3], the Kd was in the range of 10 to 100 nM.
